Source: US11230543B2, “Biaryl monobactam compounds and methods of use thereof for the treatment of bacterial infections” (priority 2015, dated 2022)
Counter-ions that a name gives are not always drawn.

Legend:
[1] = tested on: Pseudomonas aeruginosa expressing AmpC (CL5701); assay: Antibiotic activity: growth inhibitory concentration (OD600), Pseudomonas aeruginosa CL5701; assay type: cell-based; settings: lowest concentration inhibiting 95% of bacterial growth; in the presence of β lactamase inhibitor Relebactam 4 μg/mL; 35±2° C. for 22 hours; tested range 100 μM to 0.098 μM
In short: (§1)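 Clinical strains at ~2×10^5 CFU/mL in cation-adjusted Mueller-Hinton II broth, with relebactam at 4 μg/mL final; compounds 100 μM to 0.098 μM final. After 22 hours at 35±2° C, OD600 read; MITC95 is lowest concentration giving 95% growth inhibition.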

[2] = tested on: Klebsiella pneumoniae expressing KPC-1 (CL6569); assay: Antibiotic activity: growth inhibitory concentration (OD600), Klebsiella pneumoniae CL6569; assay type: cell-based; settings: lowest concentration inhibiting 95% of bacterial growth; in the presence of β lactamase inhibitor Relebactam 4 μg/mL; 35±2° C. for 22 hours; tested range 100 μM to 0.098 μM
In short: as §1

SMILES | PA_CL5701 MITC95 [1] [µM] | KP_CL6569 MITC95 [2] [µM]
C[n+]1cc(-c2ccc(OC[C@H](O/N=C(\C(=O)N[C@@H]3C(=O)N(OS(=O)(=O)O)C3(C)C)c3csc(N)n3)C(=O)O)cc2F)cn1CC(N)CN (single isomer, unassigned) [Example 45] | 6.25 | 0.3906
CC1(C)[C@H](NC(=O)/C(=N\O[C@@H](COc2ccc(-n3cc[n+](CCCN)c3)nc2)C(=O)O)c2csc(N)n2)C(=O)N1OS(=O)(=O)[O-] [Example 112, (S)-3-((Z)-2-(((S)-2-((6-(3-(3-aminopropyl)-1H-imidazol-3-ium-1-yl)pyridin-3-yl)oxy)-1-carboxyethoxy)imino)-2-(2-aminothiazol-4-yl)acetamido)-2,2-dimethyl-4-oxoazetidin-1-yl sulfate] | 10.42 | 0.7813
C[n+]1cc(-c2ccc(OC[C@H](O/N=C(\C(=O)N[C@@H]3C(=O)N(OS(=O)(=O)[O-])C3(C)C)c3csc(N)n3)C(=O)O)cc2)ccc1N1CCNCC1 [Example 71, (S)-3-((Z)-2-(2-aminothiazol-4-yl)-2-(((S)-1-carboxy-2-(4-(1-methyl-6-(piperazin-1-yl)pyridin-1-ium-3-yl)phenoxy)ethoxy)imino)acetamido)-2,2-dimethyl-4-oxoazetidin-1-yl sulfate] | 6.25 | 0.1953
CC1(C)[C@H](NC(=O)/C(=N\OC(COc2ccc(C(N)CNC3=NCCN3)cc2)C(=O)O)c2csc(N)n2)C(=O)N1OS(=O)(=O)O (stereo in doubt) [Example 59, (R)-3-(4-((S)-1-amino-2-((4,5-dihydro-1H-imidazol-2-yl)amino)ethyl)phenoxy)-2-((((Z)-1-(2-aminothiazol-4-yl)-2-(((S)-2,2-dimethyl-4-oxo-1-(sulfooxy)azetidin-3-yl)amino)-2-oxoethylidene)amino)oxy)propanoic acid] | 12.5 | 3.125
C[n+]1cc(-c2ccc(OC[C@H](O/N=C(\C(=O)N[C@@H]3C(=O)N(OS(=O)(=O)[O-])C3(C)C)c3csc(N)n3)C(=O)O)cc2)ccc1CNCCN [Example 78, (S)-3-((Z)-2-(((S)-2-(4-(6-(((2-aminoethyl)amino)methyl)-1-methylpyridin-1-ium-3-yl)phenoxy)-1-carboxyethoxy)imino)-2-(2-aminothiazol-4-yl)acetamido)-2,2-dimethyl-4-oxoazetidin-1-yl sulfate] | 12.5 | 0.7813
C[n+]1cc(-c2c(F)cc(OC[C@H](O/N=C(\C(=O)N[C@@H]3C(=O)N(OS(=O)(=O)O)C3(C)C)c3csc(N)n3)C(=O)O)cc2F)cn1CCCN.O=C(O)C(F)(F)F [Example 3, (S)-3-((Z)-2-(((S)-2-(4-(1-(3-aminopropyl)-2-methyl-1H-pyrazol-2-ium-4-yl)-3,5-difluorophenoxy)-1-carboxyethoxy)imino)-2-(2-aminothiazol-4-yl)acetamido)-2,2-dimethyl-4-oxoazetidin-1-yl sulfate compound with 2,2,2-trifluoroacetic acid (1:1)] | 6.25 | 0.39
C[n+]1cn(CCCN)cc1-c1ccc(OC[C@H](O/N=C(\C(=O)NC2C(=O)N(OS(=O)(=O)[O-])C2(C)C)c2csc(N)n2)C(=O)O)cc1 (stereo partly drawn) [Example 2, (S)-3-((Z)-2-(2-aminothiazol-4-yl)-2-(((S)-2-(4-(1-(3-ammoniopropyl)-3-methyl-1H-imidazol-3-ium-4-yl)phenoxy)-1-carboxyethoxy)imino)acetamido)-2,2-dimethyl-4-oxoazetidin-1-yl-sulfate] | 3.125 | 0.3906
CC1(C)[C@H](NC(=O)/C(=N\O[C@@H](COc2ccc(-c3cn(CCCN)[n+](CC4(F)CNC4)c3)cc2)C(=O)O)c2csc(N)n2)C(=O)N1OS(=O)(=O)[O-] [Example 119, (S)-3-((Z)-2-(((S)-2-(4-(1-(3-aminopropyl)-2-((3-fluoroazetidin-3-yl)methyl)-1H-pyrazol-2-ium-4-yl)phenoxy)-1-carboxyethoxy)imino)-2-(2-aminothiazol-4-yl)acetamido)-2,2-dimethyl-4-oxoazetidin-1-yl sulfate] | 6.25 | 0.3906
C[C@H]1[C@H](NC(=O)/C(=N\O[C@@H](COc2ccc(-c3cn(CCCN)[n+](C)c3)cc2)C(=O)O)c2csc(N)n2)C(=O)N1S(=O)(=O)[O-] [Example 7, (2S,3S)-3-((Z)-2-(((S)-2-(4-(1-(3-aminopropyl)-2-methyl-1H-pyrazol-2-ium-4-yl)phenoxy)-1-carboxyethoxy)imino)-2-(2-aminothiazol-4-yl)acetamido)-2-methyl-4-oxoazetidine-1-sulfonate] | 12.5 | 1.563
CC1(C)[C@H](NC(=O)/C(=N\O[C@H](COc2ccc(Nc3nccn3CCCN)nc2)C(=O)O)c2csc(N)n2)C(=O)N1OS(=O)(=O)O [Example 37B, 3-(2-((5-((R)-2-((((Z)-1-(2-aminothiazol-4-yl)-2-(((S)-2,2-dimethyl-4-oxo-1-(sulfooxy)azetidin-3-yl)amino)-2-oxoethylidene)amino)oxy)-2-carboxyethoxy)pyridin-2-yl)amino)-1H-imidazol-1-yl)propan-1-aminium 2,2,2-trifluoroacetate] | 25 | 6.25
CC1(C)[C@H](NC(=O)/C(=N\O[C@@H](COc2ccc(-c3cn(CCCN)[n+](CC4CNC4)c3)cc2)C(=O)O)c2csc(N)n2)C(=O)N1OS(=O)(=O)[O-] [Example 97, (S)-3-((Z)-2-(((S)-2-(4-(1-(3-aminopropyl)-2-(azetidin-3-ylmethyl)-1H-pyrazol-2-ium-4-yl)phenoxy)-1-carboxyethoxy)imino)-2-(2-aminothiazol-4-yl)acetamido)-2,2-dimethyl-4-oxoazetidin-1-yl sulfate] | 1.781 | 0.125
CC1(C)[C@H](NC(=O)/C(=N\O[C@@](C)(COc2ccc(-n3cc[n+](CCCN)c3)nc2)C(=O)O)c2csc(N)n2)C(=O)N1OS(=O)(=O)[O-] [Example 113, (S)-3-((Z)-2-((((S)-1-((6-(3-(3-aminopropyl)-1H-imidazol-3-ium-1-yl)pyridin-3-yloxy)-2-carboxypropan-2-yl)oxy)imino)-2-(2-aminothiazol-4-yl)acetamido)-2,2-dimethyl-4-oxoazetidin-1-yl sulfate] | 12.5 | 0.7813
C[n+]1cc(-c2ccc(OCC(C)(O/N=C(\C(=O)N[C@@H]3C(=O)N(OS(=O)(=O)O)C3(C)C)c3nc(N)sc3Cl)C(=O)O)cc2)cn1CCCN (stereo in doubt) [Example 51A, (S)-3-((Z)-2-(2-Amino-5-chlorothiazol-4-yl)-2-((((R)-1-(4-(1-(3-aminopropyl)-2-methyl-1H-pyrazol-2-ium-4-yl)phenoxy)-2-carboxypropan-2-yl)oxy)imino)acetamido)-2,2-dimethyl-4-oxoazetidin-1-yl sulfate] | 3.125 | 0.7813
C[n+]1cc(-c2ccc(OC[C@H](O/N=C(\C(=O)N[C@@H]3C(=O)N(OS(=O)(=O)O)C3(C)C)c3csc(N)n3)C(=O)O)cc2)cn1CCCNCC1CNC1 [Example 103, (S)-3-((E)-2-(2-aminothiazol-4-yl)-2-(((S)-2-(4-(1-(3-((azetidin-3-ylmethyl)amino)-propyl)-2-methyl-1H-pyrazol-2-ium-4-yl)phenoxy)-1-carboxyethoxy)imino)acetamido)-2,2-dimethyl-4-oxoazetidin-1-yl sulfate, 3TFA] | 3.125 | 0.09766
CC1(C)[C@H](NC(=O)/C(=N\O[C@@H](COc2ccc(C3CN=C(NCCN)NC3)cc2)C(=O)O)c2csc(N)n2)C(=O)N1OS(=O)(=O)O (stereo partly drawn) [Example 94, (2S)-3-(4-(2-((2-aminoethyl)amino)-1,4,5,6-tetrahydropyrimidin-5-yl)phenoxy)-2-((((Z)-1-(2-aminothiazol-4-yl)-2-(((S)-2,2-dimethyl-4-oxo-1-(sulfooxy)azetidin-3-yl)amino)-2-oxoethylidene)amino)oxy)propanoic acid] | 3.125 | 0.1953
CCOC(=O)[C@H](COc1ccc(-c2cn(CCCN)c(=N)n2C)cc1)O/N=C(\C(=O)N[C@@H]1C(=O)N(OS(=O)(=O)O)C1(C)C)c1csc(N)n1 [Example 116, Ethyl (S)-3-(4-(1-(3-aminopropyl)-2-imino-3-methyl-2,3-dihydro-1H-imidazol-4-yl)phenoxy)-2-((((Z)-1-(2-aminothiazol-4-yl)-2-(((S)-2,2-dimethyl-4-oxo-1-(sulfooxy)azetidin-3-yl)amino)-2-oxoethylidene)amino)oxy)propanoate] | 50 | 6.25
CC1(C)[C@H](NC(=O)/C(=N\OCCOc2ccc(-c3cnn(CCCN)c3)cc2)c2csc(N)n2)C(=O)N1OS(=O)(=O)O [Example 5, (S,Z)-3-(2-((2-(4-(1-(3-aminopropyl)-1H-pyrazol-4-yl)phenoxy)ethoxy)imino)-2-(2-aminothiazol-4-yl)acetamido)-2,2-dimethyl-4-oxoazetidin-1-yl sulfate] | 50 | 6.25
C[C@H]1[C@H](NC(=O)/C(=N\O[C@@H](COc2ccc(-c3cnn(CCCN)c3)cc2)C(=O)O)c2csc(N)n2)C(=O)N1S(=O)(=O)O [Example 6, (S)-3-(4-(1-(3-aminopropyl)-1H-pyrazol-4-yl)phenoxy)-2-((((Z)-1-(2-aminothiazol-4-yl)-2-(((2S,3S)-2-methyl-4-oxo-1-sulfoazetidin-3-yl)amino)-2-oxoethylidene)amino)oxy)propanoic acid] | 100 | 12.5
